The assay has as its target T1, rat NaPi-2b (Rattus norvegicus, UniProt Q9JJ09).
T1 construct: expressed in transfected cells; host or cells: Xenopus oocytes injected with cRNA
T1 sequence (Q9JJ09 1-695): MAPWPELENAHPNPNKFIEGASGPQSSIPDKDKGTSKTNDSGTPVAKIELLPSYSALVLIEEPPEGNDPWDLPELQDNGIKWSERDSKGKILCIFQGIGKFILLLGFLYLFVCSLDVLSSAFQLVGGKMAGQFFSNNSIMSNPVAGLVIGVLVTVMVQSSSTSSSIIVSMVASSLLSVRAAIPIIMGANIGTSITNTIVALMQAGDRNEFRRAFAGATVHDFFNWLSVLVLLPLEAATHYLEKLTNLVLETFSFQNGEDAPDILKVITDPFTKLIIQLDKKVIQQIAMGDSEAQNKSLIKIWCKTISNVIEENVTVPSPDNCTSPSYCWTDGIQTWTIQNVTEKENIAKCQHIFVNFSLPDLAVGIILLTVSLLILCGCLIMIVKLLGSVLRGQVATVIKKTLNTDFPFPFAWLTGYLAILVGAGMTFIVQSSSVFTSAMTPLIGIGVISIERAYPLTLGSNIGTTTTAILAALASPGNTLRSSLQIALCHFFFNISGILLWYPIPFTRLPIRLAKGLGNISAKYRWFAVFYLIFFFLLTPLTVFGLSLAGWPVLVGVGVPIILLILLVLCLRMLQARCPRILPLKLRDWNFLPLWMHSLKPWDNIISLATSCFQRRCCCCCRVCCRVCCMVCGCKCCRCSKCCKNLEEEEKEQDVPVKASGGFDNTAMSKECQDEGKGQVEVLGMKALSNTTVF
The experiment in a line: Sodium-dependent phosphate uptake of Xenopus oocytes which expressed NaPi-2b (32P). The assay is classed as cell-based. The settings on record: Xenopus oocytes expressing rat NaPi-2b, 32P radioactive phosphorus; read-out: IC50 (phosphate uptake inhibitory activity). How it is done: Pharmacological Test Example 1
Experiment of Sodium-Dependent Phosphate Uptake of Xenopus oocytes which Expressed NaPi-2b
Degenerate primers were prepared from sequences of mouse NaPi-2b disclosed in Hilfiker H. et al., Pro Natl Acad Sci USA, 95 (24): 14564-14569, […] and sequences of human and rat NaPi-2a disclosed in Magagnin S. et al., Proc Natl Aca Sci USA, 90 (13): 5979-5983, 1993. RNA was extracted from the rat small intestine using ISOGEN; manufactured by NIPPON GENE CO., LTD (Japan). 400 bp gene fragments were obtained by PCR using, as a template, a cDNA library prepared with a cDNA synthesis kit (manufactured by STRATAGENE (US)). Thereafter, the above rat small intestine cDNA library was screened using the gene fragment as a probe, and the whole gene sequence of rat NaPi-2b was cloned. cRNA was synthesized from the cloned rat NaPi-2b cDNA with a cRNA synthesis kit (manufactured by Ambion (US)). The synthesized cRNA was injected into Xenopus oocytes (obtained from COPACETIC (Japan)) with a liquid microinjector (manufactured by Drummond (US)) and was cultured for 2 days to express rat NaPi-2b. Thereafter, for a group of derivatives, phosphate uptake inhibitory activity were measured using the Xenopus oocytes with ^32P radioactive phosphorus (manufactured by Daiichi Kagaku Inc. (Japan)). […] The inhibitory activity for 300 μM and 100 μM was determined from the same inhibition curve and expressed in percentage inhibition (%) in Table 5.

pIC50: −log10 of the molar value.

`COc1ccc(C(=O)Nc2ccccc2C(=O)N/N=C/c2ccc(OC(F)(F)F)cc2)cc1OC` [Compound 33, 3,4-Dimethoxy-N-[2-(4-trifluoromethoxy-benzylidene-hydrazinocarbonyl)-phenyl]-benzamide]: the pIC50 is 4.82.
Then `COc1ccc(/C=N/NC(=O)c2ccccc2NC(=O)c2ccc(OC)c(OC)c2)cc1Br` [Compound 34, N-[2-(3-Bromo-4-methoxy-benzylidene-hydrazinocarbonyl)-phenyl]-3,4-dimethoxy-benzamide], with 5.82; and `COc1ccc(C(=O)Nc2ccccc2C(=O)N/N=C/c2cccc(Cl)c2)cc1OC` [Compound 35, N-[2-(3-Chloro-benzylidene-hydrazinocarbonyl)-phenyl]-3,4-dimethoxy-benzamide], with 5.49; and `COc1ccc(C(=O)Nc2ccccc2C(=O)N/N=C/c2cc(C)c(O)c(C)c2)cc1OC` [Compound 36, N-[2-(4-Hydroxy-3,5-dimethyl-benzylidene-hydrazinocarbonyl)-phenyl]-3,4-dimethoxy-benzamide], with 5.39.
The value for `CCOc1cc(/C=N/NC(=O)c2ccccc2NC(=O)c2ccc(OC)c(OC)c2)ccc1O` [Compound 37, N-[2-(3-Ethoxy-4-hydroxy-benzylidene-hydrazinocarbonyl)-phenyl]-3,4-dimethoxy-benzamide] was 4.87; that for `O=C(Nc1ccccc1C(=O)N/N=C/c1ccc(F)cc1)c1ccccc1F` [Compound 38, 2-Fluoro-N-[2-(4-fluoro-benzylidene-hydrazinocarbonyl)-phenyl]-benzamide] was 5.25; that for `O=C(Nc1ccccc1C(=O)N/N=C/c1cccc(O)c1)c1ccccc1F` [Compound 39, 2-Fluoro-N-[2-(3-hydroxy-benzylidene-hydrazinocarbonyl)-phenyl]-benzamide] was 5.03.
The value for `Cc1ccc(/C=N/NC(=O)c2ccccc2NC(=O)c2ccccc2F)cc1` [Compound 40, 2-Fluoro-N-[2-(4-methyl-benzylidene-hydrazinocarbonyl)-phenyl]-benzamide] was 5.69.
In the case of `COc1ccc(C(=O)Nc2ccccc2C(=O)N/N=C/c2ccc(Cl)c(C(F)(F)F)c2)cc1OC` [Compound 41, N-[2-(4-Chloro-3-trifluoromethyl-benzylidene-hydrazinocarbonyl)-phenyl]-3,4-dimethoxy-benzamide], the pIC50 was 5.61.
Then `COc1ccc(C(=O)Nc2ccccc2C(=O)N/N=C/c2ccc(O)c(C)c2)cc1OC` [Compound 42, N-[2-(4-Hydroxy-3-methyl-benzylidene-hydrazinocarbonyl)-phenyl]-3,4-dimethoxy-benzamide], with 5.09.
Then `COc1ccc(C(=O)Nc2ccccc2C(=O)N/N=C/c2cc(C)ccc2C)cc1OC` [Compound 43, N-[2-(2,5-Dimethyl-benzylidene-hydrazinocarbonyl)-phenyl]-3,4-dimethoxy-benzamide], with 4.68.
Then `COc1ccc(C(=O)Nc2ccccc2C(=O)N/N=C/c2cc(C(F)(F)F)ccc2F)cc1OC` [Compound 44, N-[2-(2-Fluoro-5-trifluoromethyl-benzylidene-hydrazinocarbonyl)-phenyl]-3,4-dimethoxy-benzamide], with 5.33; and `Cc1cc(/C=N/NC(=O)c2ccccc2NC(=O)c2ccccc2F)ccc1O` [Compound 45, 2-Fluoro-N-[2-(4-hydroxy-3-methyl-benzylidene-hydrazinocarbonyl)-phenyl]-benzamide], with 4.58; and `Cc1ccc(C)c(/C=N/NC(=O)c2ccccc2NC(=O)c2ccccc2F)c1` [Compound 46, N-[2-(2,5-Dimethyl-benzylidene-hydrazinocarbonyl)-phenyl]-2-fluoro-benzamide], with 5.13.
Take `COc1ccc(C(=O)Nc2ccccc2C(=O)N/N=C/c2cccc(F)c2)cc1` [Compound 47, N-[2-(3-Fluoro-benzylidene-hydrazinocarbonyl)-phenyl]-4-methoxy-benzamide]: the negative logarithm of the IC50 (pIC50) was 5.36.
The value for `COc1ccc(C(=O)Nc2ccccc2C(=O)N/N=C/c2ccc(F)cc2)cc1` [Compound 48, N-[2-(4-Fluoro-benzylidene-hydrazinocarbonyl)-phenyl]-4-methoxy-benzamide] was 5.68.
Consider `COc1ccc(C(=O)Nc2ccccc2C(=O)N/N=C/c2cccc(C)c2)cc1` [Compound 49, 4-Methoxy-N-[2-(3-methyl-benzylidene-hydrazinocarbonyl)-phenyl]-benzamide], for which the pIC50 was 5.47.
The value for `COc1ccc(C(=O)Nc2ccccc2C(=O)N/N=C/c2cccc(O)c2)cc1` [Compound 50, N-[2-(3-Hydroxy-benzylidene-hydrazinocarbonyl)-phenyl]-4-methoxy-benzamide] was 4.71.
Then `COc1ccc(C(=O)Nc2ccccc2C(=O)N/N=C/c2ccc(C)cc2)cc1` [Compound 51, 4-Methoxy-N-[2-(4-methyl-benzylidene-hydrazinocarbonyl)-phenyl]-benzamide], with 5.34.
Then `C=CCOc1ccc(/C=N/NC(=O)c2ccccc2NC(=O)c2ccc(OC)c(OC)c2)cc1` [Compound 52, N-[2-(4-Allyloxy-benzylidene-hydrazinocarbonyl)-phenyl]-3,4-dimethoxy-benzamide], with 4.98; and `COc1cc(/C=N/NC(=O)c2ccccc2NC(=O)c2ccc(OC)c(OC)c2)cc(OC)c1` [Compound 53, N-[2-(3,5-Dimethoxy-benzylidene-hydrazinocarbonyl)-phenyl]-3,4-dimethoxy-benzamide], with 5.39; and `COc1ccc(C(=O)Nc2ccccc2C(=O)N/N=C/c2cccc(Oc3cccc(C(F)(F)F)c3)c2)cc1OC` [Compound 54, 3,4-Dimethoxy-N-{2-[3-(3-trifluoromethyl-phenoxy)-benzylidene-hydrazinocarbonyl]-phenyl}-benzamide], with 5.19.
On to `COc1cc(OC)cc(C(=O)Nc2ccccc2C(=O)N/N=C/c2cccc(F)c2)c1` [Compound 55, N-[2-(3-Fluoro-benzylidene-hydrazinocarbonyl)-phenyl]-3,5-dimethoxy-benzamide], for which the pIC50 is 6.07.
With `COc1cc(OC)cc(C(=O)Nc2ccccc2C(=O)N/N=C/c2ccc(F)cc2)c1` [Compound 56, N-[2-(4-Fluoro-benzylidene-hydrazinocarbonyl)-phenyl]-3,5-dimethoxy-benzamide], the negative-log IC50 (pIC50) is 6.05.
Then `COc1cc(OC)cc(C(=O)Nc2ccccc2C(=O)N/N=C/c2ccc(C)cc2)c1` [Compound 57, 3,5-Dimethoxy-N-[2-(4-methyl-benzylidene-hydrazinocarbonyl)-phenyl]-benzamide], with 5.99.
The value for `COc1cc(OC)cc(C(=O)Nc2ccccc2C(=O)N/N=C/c2cccc(O)c2)c1` [Compound 58, N-[2-(3-Hydroxy-benzylidene-hydrazinocarbonyl)-phenyl]-3,5-dimethoxy-benzamide] was 5.12.
With `COc1ccc(C(=O)Nc2ccc(Br)cc2C(=O)N/N=C/c2cccc(Cl)c2)cc1OC` [Compound 59, N-[4-Bromo-2-(3-chloro-benzylidene-hydrazinocarbonyl)-phenyl]-3,4-dimethoxy-benzamide], the pIC50 is 5.91.
The value for `COc1ccc(C(=O)Nc2ccc(Br)cc2C(=O)N/N=C/c2ccc(Cl)cc2)cc1OC` [Compound 60, N-[4-Bromo-2-(4-chloro-benzylidene-hydrazinocarbonyl)-phenyl]-3,4-dimethoxy-benzamide] was 5.80; that for `COc1ccc(C(=O)Nc2ccc(Br)cc2C(=O)N/N=C/c2ccc(F)cc2)cc1OC` [Compound 61, N-[4-Bromo-2-(4-fluoro-benzylidene-hydrazinocarbonyl)-phenyl]-3,4-dimethoxy-benzamide] was 6.51.
The value for `COc1ccc(C(=O)Nc2ccc(Br)cc2C(=O)N/N=C/c2ccc(C)cc2)cc1OC` [Compound 62, N-[4-Bromo-2-(4-methyl-benzylidene-hydrazinocarbonyl)-phenyl]-3,4-dimethoxy-benzamide] was 6.05.

The values are drawn from patent US8134015B2, “Compound inhibiting in vivo phosphorous transport and medicine containing the same” (Kyowa Hakko Kirin Co., Ltd., priority 2003, dated 2012).
